Values quoted from earlier work in patent US11485730B2, “Compositions and methods for the treatment of fungal infections” (Cellix Bio Private Limited, priority 2016, dated 2022).
Where two headings read alike, the source gives them in different places.

Assays:
[1] = tested on: oral streptococci and periodontopathogens
[2] = among the long-chain fatty acids
[3] = tested on: various oral pathogenic microorganisms

CCCCC/C=C\C/C=C\C/C=C\CCCCC(=O)O [GLA, gamma linoleic acid]
bactericidal concentration ([1]; n-6 fatty acids): 25 µg/mL
antimicrobial activity [2]: greatest antimicrobial activity
anti-microbial activity ([3]; in vitro studies, various oral pathogenic microorganisms): significant anti-microbial activity
antimicrobial activities ([3]; various oral microorganisms, including S. mutans, A. actinomycetemcomitans, C. albicans, P. gingivalis, F. nucleatum, S. gordonii): antimicrobial activities

CCCCC/C=C\C/C=C\C/C=C\C/C=C\CCCC(=O)O [arachidonic acid]
antimicrobial activity [2]: greatest antimicrobial activity

CCCCC/C=C\C/C=C\CCCCCCCC(=O)O [linoleic acid]
activity against C. albicans (C. albicans): < 40%
MIC (Candida Species): 450 µM
MIC (Candida Species; printed as corresponding to 0.45 μmoles/ml): 0.13 µg/mL
bactericidal concentration [1]: 25 µg/mL
antimicrobial activity [2]: greatest antimicrobial activity

CCCCCCCCCCCCCCCC(=O)O [palmitic acid]
antimicrobial activity [2]: greatest antimicrobial activity

CCCCCC/C=C\CCCCCCCC(=O)O [palmitoleic acid]
antimicrobial activity [2]: greatest antimicrobial activity
